Literature values as cited in patent US20250255804A1, “LIQUID INJECTABLE COMPOSITIONS OF LURBINECTEDIN” (DR. REDDY’S LABORATORIES LIMITED, priority 2024, published 2025).

Conditions: solubility increases at acidic pH

SMILES: COc1ccc2[nH]c3c(c2c1)CCN[C@]31CS[C@@H]2c3c(OC(C)=O)c(C)c4c(c3[C@H](COC1=O)N1[C@@H]2[C@H]2c3c(cc(C)c(OC)c3O)C[C@@H]([C@@H]1O)N2C)OCO4 [lurbinectedin, Lurbinectedin]
- solubility in water: insoluble or practically insoluble in water
